Source: patent US20070218456A1, “CELLULAR ASSAYS FOR SIGNALING RECEPTORS” (INVITROGEN CORPORATION, priority 2006, published 2007)
Where two headings read alike, the source gives them in different places.

What was measured:
hGPR23 = assay: LPA dose response on hGPR23-CRE-bla CHO-K1 selected pool; format: cell-based, human; conditions: 5 hrs stimulation
Source text: An attempt was made to develop a GPR23 assay by stably expressing a human GPR23 (hGPR23) in a CRE-bla CHO-K1 cell line. The CRE-bla CHO-K1 cell line has a non-GPR23 specific endogenous response to LPA (see Example 18), but by adding the human GPR23 to the cells it could have been possible to increase the LPA responsiveness of these cells or create a constitutively active cell line that could be used to screen for inverse agonists of the hGPR23 receptor. The hGPR23 expression plasmid was transfected into the CRE-bla CHO-K1 cell line. Lipofectamine 2000 (Invitrogen) was used at a ratio of 0.4 ug of DNA per every uL of Lipofectamine 2000 following manufacturer's directions.
(§1) A stable pool was selected using Zeocin. LPA dose response on the hGPR23-CRE-bla CHO-K1 selected pool and CRE-bla CHO-K1 cell line was performed. The cells were plated at 50,000 cells per well in a 96 well assay plate in OptiMEM+0.5% FBS and placed at 37° C. 5% CO2 overnight. The cells were then stimulated with a four fold dilution series of LPA in DMEM+0.1% BSA for 5 hrs. and loaded with substrate for 2 hrs.

Jurkat cells = assay: Transient transfection assay, NFAT-bla and CRE-bla Jurkat, response to LPA; format: cell-based; conditions: 10 μM LPA
Source text: (§2) To begin development of a GPR23 assay in GeneBLAzer® CellSensor™ cell lines (Invitrogen), GPR23 was first tested in a transient transfection assay in the NFAT-bla HEK (Catalog# K1179, Invitrogen), the CRE-bla HEK (Catalog# K1112, Invitrogen), the NFAT-bla CHO-K1 (Catalog# K1078, Invitrogen), the CRE-bla CHO-K1 (Catalog# K1129, Invitrogen), the NFAT-bla Jurkat CellSensor™ cell lines (Catalog# K1077, Invitrogen) and the CRE-bla Jurkat CellSensor™ cell lines (Catalog# K1134, Invitrogen). The hGPR23 expression plasmid was transfected into the cell lines. Lipofectamine 2000 (Invitrogen) was used at a ratio of 0.4 ug of DNA per every uL of Lipofectamine 2000 following manufacturer's directions. After 48 hours the cells were assayed for a response to 10 μM LPA.

GPR23 [1] = assay: LPA responsiveness of T-REx-GPR23 CRE-bla-CHO-K1 clone H6-E2; format: cell-based, human; conditions: un-induced cells
Description: (§3) The cells were plated at 20,000 cells per well in a 384 well black walled clear bottom tissue culture assay plate in complete media (DMEM+10% FBS). The plates were then placed at 37° C. 5% CO2 for 6 hrs to allow the cells to attach to the assay plate. The complete media was then removed from the plate and replaced with assay media (DMEM+0.1% BSA) containing 100 ng/ml pertussis toxin and 0.5% DMSO, with or without 10 μg/ml doxycycline. The plates were placed at 37° C. 5% CO2 for 16 hrs to allow the induced expression of the GPR23 receptor. The cells were then stimulated for five hours with a four fold dilution series of LPA starting at 1 μM. The cells were then loaded with LiveBLAzer™-FRET B/G substrate (2 μM) containing solution D for 2 hrs.

HEK cells = assay: Transient transfection assay, NFAT-bla and CRE-bla HEK, response to LPA; format: cell-based, human; conditions: 10 μM LPA
Source text: as §2

[2] = system: NFAT and CRE CHO-K1 cell lines; assay: Transient transfection assay, NFAT-bla and CRE-bla CHO-K1, response to LPA; format: cell-based, Chinese hamster; conditions: 10 μM LPA; absence of transfected GPR23
Source text: as §2

T-REx™-CHO-K1 = assay: Perkin Elmer LANCE cAMP assay on parental T-REx-CHO-K1; format: cell-based, Chinese hamster; conditions: read-out: LPA EC50 (cAMP)
Description: (§4) Two inducible T-RExTM-GPR23-CHO-K1 clones and a parental control (T-RExTM-CHO-K1) were tested using the Perkin Elmer LANCE cAMP assay. The cells were serum starved and induced in growth medium +/-1 μg/ml tetracycline +100 ng/ml pertussis toxin without FBS for 24 hrs prior to the assay. The cells were then harvested using […] assayed for LPA responsiveness using the Perkin Elmer Lance assay according to the manufacture's instructions.

CRE-bla CHO-K1 cell line = assay: LPA dose response on CRE-bla CHO-K1 cell line; format: cell-based, Chinese hamster; conditions: CRE-bla CHO cells; 5 hrs stimulation
Description: as §1

GPR23 [3] = biological target: T1, GPR23 (Homo sapiens, UniProt Q99677); assay: Perkin Elmer LANCE cAMP assay on T-REx-GPR23-CHO-K1 clones; format: cell-based; set-up: expressed in transfected cells; host or cells: CHO-K1 with tet repressor (T-REx); clones E1 and H6, later CRE-bla subclone H6-E2; conditions: read-out: LPA EC50 (cAMP)
Description: as §4

GPR23 [4] = assay: as above; format: cell-based, human; conditions: un-induced, read-out: LPA EC50 (cAMP)
Description: as §4

GPR23 [5] = biological target: T1, GPR23; assay: LPA responsiveness of T-REx-GPR23 CRE-bla-CHO-K1 clone H6-E2; format: cell-based; set-up: expressed in transfected cells; host or cells: CHO-K1 with tet repressor (T-REx); clones E1 and H6, later CRE-bla subclone H6-E2
Description: as §3

GPR23 [6] = biological target: T1, GPR23; assay: LPA response of stably transfected GPR23-CRE-bla HEK pool; format: cell-based; set-up: expressed in transfected cells; host or cells: CellSensor CRE-bla HEK (Invitrogen K1112), stably selected pool
Description: Assay construction continued in the NFAT-bla and CRE-bla, HEK and Jurkat CellSensor™ cell lines. These cell lines were taken to the point of stably selected pools at which point they were tested for a response to LPA. Only the stably transfected GPR23-CRE-bla HEK pool gave a response to LPA. The response was <1.5 fold but reproducible.

T1 sequence (Q99677 whole entry): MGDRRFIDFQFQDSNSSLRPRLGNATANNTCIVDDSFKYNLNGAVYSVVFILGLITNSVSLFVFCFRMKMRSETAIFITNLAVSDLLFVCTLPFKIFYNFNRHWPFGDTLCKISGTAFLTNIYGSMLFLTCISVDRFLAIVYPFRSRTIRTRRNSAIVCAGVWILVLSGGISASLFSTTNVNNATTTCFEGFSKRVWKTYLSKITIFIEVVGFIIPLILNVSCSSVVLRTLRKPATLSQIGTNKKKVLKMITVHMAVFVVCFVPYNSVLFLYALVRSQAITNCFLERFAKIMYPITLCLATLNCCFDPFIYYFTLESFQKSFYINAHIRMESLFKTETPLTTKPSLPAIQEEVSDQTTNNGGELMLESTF

EC50 (hGPR23): 258 nM | EC50 (GPR23 [3]; E1 clone induced (1 μg/ml tetracycline)): 30.3 nM | EC50 (GPR23 [3]; H6 induced (1 μg/ml tetracycline)): 13.8 nM | EC50 (GPR23 [4]; E1 clone): 2000 nM | EC50 (GPR23 [4]; H6 clone): 1500 nM | response of the cells to LPA (GPR23 [5]; induced cells): 2.3 fold | EC50 (GPR23 [5]; induced cells (10 μg/ml doxycycline, 16 hrs), LPA five hours): 2.3 nM | response to LPA (GPR23 [6]): < 1.5 fold
Substance: 1 or 2-acyl-sn-glycero-3-phosphate [LPA]
response to LPA (Jurkat cells; GPR23 transfected cells): no response | response to LPA (Jurkat cells; endogenous (untransfected)): no endogenous response | response of the cells to LPA (GPR23 [1]): 9 fold | response to LPA (HEK cells; GPR23 transfected CRE-bla HEK cell line): only a small response | response to LPA (HEK cells; endogenous (untransfected)): no endogenous response | response to LPA [2]: positive response | EC50 (T-REx™-CHO-K1; parent induced (1 μg/ml tetracycline)): 915 nM | EC50 (T-REx™-CHO-K1; parent, un-induced): 5000 nM | EC50 (CRE-bla CHO-K1 cell line): 239 nM
